Experiment [1] has as its system human LDL-receptor promoter. The experiment is described as follows: LDL-receptor promoter luciferase reporter assay in transfected HepG2 cells. Type of experiment: cell-based. From the text: The human LDL-receptor promoter named p-588 corresponding to nucleotide −588 to +91 relative to the major transcription site was cloned by PCR from human genomic DNA (Clonetech) using SEQ ID NO: 3 […] and SEQ ID NO: 4 […] primers. and inserted into pGL3-basic vector (Promega) at Hind-III and Nco-I sites. The sequencing was identical to published promoter (Genbank L29401). Shorter promoters were obtained by PCR sub-cloning using Kpn-I and Nar-I sites. The primer SEQ ID NO: 5 […] corresponding to luciferase coding sequence was used as reverse primer for all constructs. The following primers were used to produce respectively p-149, p-118, p-70, p-53 and p-31 promoters: SEQ ID NO: 6 […], SEQ ID NO: 7 […], SEQ ID NO: 8 […], SEQ ID NO: 9 […] and SEQ ID NO: 10 […]. A vector containing the 38 bp of the minimal promoter of adenovirus Major Late Promoter (Ham. J. et al., EMBO, 10: 2931-2940 (1991)) was produced using Bgl-II and Hind-III site in pGL3-basic. Four repeats of the SRE sequence present on the human LDL-receptor promoter were introduced in p-MLP vector using Bgl-II site, SEQ ID NO: 11 […] and complementary oligo. HepG2 cells seeded the previous day at 3 10^5 cells per well of 24 well plate were transfected with 1 μg of LDL-promoter containing vector together with p-RL-TK control vector (Promega) using Fugene 6 (Boehringer). HepG2 cells were incubated for 28 hours in the presence of SCAP antagonist and/or 25OH-cholesterol. Firefly luciferase and Renila activity were measured using Dual Luciferase Assay Kit (Promega) and Lumistar (BMG). The ratio of Firefly luciferase to Renila were used to calculate mean and S.D. of tetraplicates.
A vector containing the human LDL-receptor promoter coupled to Firefly luciferase reporter was made. A mixture of the LDL-receptor vector and control pRL-TK vector was used to transfect HepG2 cells. Cells were incubated with 25OH-cholesterol (0.2 or 1 μM) alone or in the presence (black bars) or absence (gray bars) of Example 1 (1 μM) for 28 hours before measurement of luciferase and renila activity. The ratio of luciferase activity versus renila activity was calculated and the mean and SD of triplicates were expressed as percent of control.
Shortening the LDL-receptor promoter in the same reporter vector modifies the relative luciferase activity (FIG. 3A).
Background: Reporter assays use an easily measured gene product as a stand-in for the process of interest.

The next experiment concerns HepG2 cells. The experiment is described as follows: Uptake of Dil-LDL by HepG2 cells. In kind it is cell-based. Conditions: 10 μM, 24 hours, Dil-LDL 6 μg/ml for last 4 hours, FIG. 5. On the procedure: To determine if activation of LDL-receptor promoter also translated into an increase in functional LDL receptors, an LDL uptake assay was set up. HepG2 cells seeded at 8 10^4 cells per 8 well Biocoat slides (Beckton Dickinson) were treated with SCAP antagonist or 25OH-cholesterol for 20h and then incubated with 6 μg/ml of fluorescent Dil-LDL for 4 hours. The amount of fluorescent dye that accumulated in the lysosomes was quantified by fluorescence microscopy using Axioplan-2 Zeiss microscope equipped with DXC950P video camera (Sony) and red fluorescence filters.
HepG2 cells were treated for 24 hours in the presence of 0.5 μM Example 1 or 10 μM 25OH-cholesterol. Dil-LDL (6 μg/ml) were added 4 hours before the end of the incubation. Cells were washed and observed by fluorescence microscopy using rhodamine filters and video camera with fixed settings.

For the next experiment, the target named is T1, full length hamster SCAP (Cricetulus griseus, UniProt P97260).
T1 construct: recombinant baculovirus encoding for full length hamster SCAP containing a T7 tag; expressed in transfected cells; host or cells: Sf-9 insect cells infected with recombinant baculovirus (pTen12 transfer vector)
T1 sequence (P97260 1-1276): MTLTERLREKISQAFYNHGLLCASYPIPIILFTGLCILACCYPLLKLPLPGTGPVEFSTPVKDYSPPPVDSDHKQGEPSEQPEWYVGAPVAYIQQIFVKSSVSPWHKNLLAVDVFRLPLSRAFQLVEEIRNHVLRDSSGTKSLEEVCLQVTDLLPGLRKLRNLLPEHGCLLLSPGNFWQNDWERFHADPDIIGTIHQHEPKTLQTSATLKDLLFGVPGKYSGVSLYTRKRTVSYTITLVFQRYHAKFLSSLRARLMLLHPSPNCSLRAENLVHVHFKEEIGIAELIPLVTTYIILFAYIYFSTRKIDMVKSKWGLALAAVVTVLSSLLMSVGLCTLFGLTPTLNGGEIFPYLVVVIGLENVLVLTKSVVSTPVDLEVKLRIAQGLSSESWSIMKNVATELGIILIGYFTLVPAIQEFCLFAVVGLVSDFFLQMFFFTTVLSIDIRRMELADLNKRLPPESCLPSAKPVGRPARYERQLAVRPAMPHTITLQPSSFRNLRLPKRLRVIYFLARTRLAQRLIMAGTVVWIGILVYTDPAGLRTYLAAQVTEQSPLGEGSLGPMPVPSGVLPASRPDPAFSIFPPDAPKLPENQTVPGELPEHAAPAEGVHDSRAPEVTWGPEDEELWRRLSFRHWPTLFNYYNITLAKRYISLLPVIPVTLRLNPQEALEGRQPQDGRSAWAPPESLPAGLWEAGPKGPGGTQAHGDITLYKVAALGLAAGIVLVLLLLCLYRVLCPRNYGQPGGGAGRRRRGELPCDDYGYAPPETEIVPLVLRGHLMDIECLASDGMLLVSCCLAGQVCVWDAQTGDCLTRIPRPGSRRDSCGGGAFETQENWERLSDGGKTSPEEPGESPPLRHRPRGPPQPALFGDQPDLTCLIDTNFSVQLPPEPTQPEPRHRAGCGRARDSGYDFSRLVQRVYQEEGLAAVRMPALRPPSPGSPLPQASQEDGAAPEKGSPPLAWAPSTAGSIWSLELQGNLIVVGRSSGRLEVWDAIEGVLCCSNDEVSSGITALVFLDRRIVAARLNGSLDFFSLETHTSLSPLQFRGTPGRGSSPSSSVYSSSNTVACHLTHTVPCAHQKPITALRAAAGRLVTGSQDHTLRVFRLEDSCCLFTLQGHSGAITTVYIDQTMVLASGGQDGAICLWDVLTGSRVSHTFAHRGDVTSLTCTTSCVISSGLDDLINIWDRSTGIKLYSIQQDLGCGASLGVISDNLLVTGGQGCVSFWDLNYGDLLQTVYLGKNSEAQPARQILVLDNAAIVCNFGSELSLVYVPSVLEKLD
The experiment is described as follows: Photo-affinity labelling / competition binding on full length SCAP in infected Sf-9 cells. The method, then: Hamster SCAP cDNA was cut from pTK-HSV-SCAP-T7 using BgIII and Xbal and re-cloned in pTen 12 transfer vector. Recombinant baculovirus clones were produced by Quantum Biotechnologies Inc. and screened by western blots using T7-tag antibodies on Sf-9 infected cells. Sf-9 cells were grown in CCM-3 medium at 28° C. and seeded at 8×10^6 cells per 75 cm^2 flask. Four hours later they were infected with 200×10^6 pfu of baculovirus and incubated 3 days before harvest. […]
Infected Sf-9 cells were harvested, washed in Dulbecco phosphate buffered saline and 2×10^5 cells were incubated with test compounds and the control (^14C radio-labeled Example 2 ) for 30 min at 28° C. in 24 well plates. […] The radioactivity was detected using a Phosporlmager screen (Molecular Dynamics).
Sf-9 insect cells were infected with recombinant baculovirus encoding for full length hamster SCAP containing a T7 tag (FIG. 1A). Total protein (10 μg) from control cells (lanes b, d) or infected cells (lanes a, c) were analyzed by SDS-PAGE and either stained using Coomassie blue (lanes a, b) or blotted on nitrocellulose membrane following immuno-detection with T7 tag monoclonal antibody (lanes c, d). […] The gel was dried and radioactivity detected using Phosphor Imager Screen.

Experiment [2] concerns the target T2, truncated form of SCAP corresponding to amino acid 2 to 473 (Cricetulus griseus, UniProt P97260).
T2 construct: a truncated form of SCAP corresponding to amino acid 2 to 473; expressed in transfected cells; host or cells: Sf-9 insect cells infected with recombinant baculovirus (Gateway pDest10 bacmid); membranes analysed
T2 sequence (P97260 2-473): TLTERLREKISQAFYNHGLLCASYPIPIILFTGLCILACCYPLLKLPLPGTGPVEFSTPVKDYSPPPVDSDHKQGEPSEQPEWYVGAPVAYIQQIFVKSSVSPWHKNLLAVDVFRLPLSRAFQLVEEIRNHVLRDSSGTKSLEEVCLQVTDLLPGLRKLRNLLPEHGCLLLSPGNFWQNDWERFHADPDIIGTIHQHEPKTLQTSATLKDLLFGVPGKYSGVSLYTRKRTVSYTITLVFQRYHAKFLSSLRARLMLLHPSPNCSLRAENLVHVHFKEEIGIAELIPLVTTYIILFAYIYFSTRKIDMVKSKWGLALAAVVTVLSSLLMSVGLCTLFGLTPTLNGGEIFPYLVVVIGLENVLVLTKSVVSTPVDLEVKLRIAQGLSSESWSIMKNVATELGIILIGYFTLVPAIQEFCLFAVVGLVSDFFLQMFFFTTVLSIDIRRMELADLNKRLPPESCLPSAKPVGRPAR
The experiment is described as follows: Photo-affinity labelling / competition binding on truncated SCAP (amino acid 2 to 473) in Sf-9 cell membranes. More on the design: species or system hamster. The method, then:
Hamster SCAP cDNA was cut from pTK-HSV-SCAP-T7 using BgIII and Xbal and re-cloned in pTen 12 transfer vector. Recombinant baculovirus clones were produced by Quantum Biotechnologies Inc. and screened by western blots using T7-tag antibodies on Sf-9 infected cells. Sf-9 cells were grown in CCM-3 medium at 28° C. and seeded at 8×10^6 cells per 75 cm^2 flask. Four hours later they were infected with 200×10^6 pfu of baculovirus and incubated 3 days before harvest. Truncated SCAP corresponding to amino acid 2 to 473 was produced by PCR amplification with Platinium Pfx polymerase using pTK-HSV-SCAP-T7 as template and primers containing attB1 sequence followed by SEQ ID NO: 1 […] and the complement strand of attB2 sequence followed by SEQ ID NO: 2 […]. After recombination into pDonR201 vector using the Gateway cloning system, the inserts were recloned into pDest10 vector using LR recombinase. The corresponding bacmids and recombinant baculovirus were produced according the manufacturer instructions.
A competition binding assay using recombinant SCAP protein was developed in Sf-9 insect cells. […]
Infected Sf-9 cells were harvested, washed in Dulbecco phosphate buffered saline and 2×10^5 cells were incubated with test compounds and the control (^14C radio-labeled Example 2 ) for 30 min at 28° C. in 24 well plates. […] The radioactivity was detected using a Phosporlmager screen (Molecular Dynamics). […]

The structures appear in SMILES notation.

Take `C[C@H](CCCC(C)(C)O)[C@H]1CC[C@H]2[C@@H]3CC=C4C[C@@H](O)CC[C@]4(C)[C@H]3CC[C@]12C` [25OH-cholesterol, reference compound]: the “LDL-receptor promoter activity (luciferase/renila ratio)” value in experiment [1] (0.2 or 1 μM, 28 hours, HepG2, FIG. 2) was “represses LDL-receptor promoter activity”. For the same compound, the “repression of shortened LDL-receptor promoter constructs” value in experiment [1] (HepG2, FIG. 3B right) is “two sequences are involved: SRE and FP-1”. Moreover, the “LDL uptake (Dil-LDL fluorescence)” value in the experiment with HepG2 cells is reported as “reduced it”.

For the compound `CCOC1=CC2=C(CN(C)C)C[C@@H]3[C@H](C(O)C[C@@]4(C)[C@H]3CC[C@@]43OCOC34COCO4)[C@@]2(C)CC1` (stereo partly drawn) [Example 3, 3-Ethoxy-11-hydroxy-androst-3,5-diene-17α,17β-(1,3,6,8-tetraoxaspiro[4.4]nonan-4-yl)-6-methyldimethylamine], at full length hamster SCAP (100, 50, 20 μM test compound versus 5 μM 14C-Example 2, FIG. 1A), the “displacement of the 14C-Example 2 labelling of SCAP” value is on record as “displaced in a dose dependant manner”. Moreover, the “competition with 14C-Example 2 labelling of truncated SCAP” value in experiment [2] (200 μM or 100 μM test compound versus 5 μM 14C-Example 2, FIG. 1B) is reported as “competitive”.

For the compound `COc1cc(C(C)C)ccc1C1CCN(CCCCNC(=O)c2ccc(C(=O)c3ccccc3)cc2)CC1.Cl` [Example 2, 4-(4-Benzoyl)-N-{4-[4-(4-isopropyl-2-methoxy-phenyl)-piperidin-1-yl]-butyl}-benzamide Hydrochloride], at full length hamster SCAP (5 μM 14C-Example 2, 30 min at 28° C., 365 nm UV 10 min, FIG. 1A), the “photo-affinity labelling of SCAP by the radio-labelled compound” value is given as “specifically labeled SCAP”. In experiment [2] (5 μM 14C-Example 2, membranes, FIG. 1B), the “photo-affinity labelling of truncated SCAP by the radio-labelled compound” value is listed as “can be labelled”.
